Measurements: PMC5853558, “De novo identification of lipid II binding lipopeptides with antibacterial activity against vancomycin-resistant bacteria” (Chemical Science, 2017)
Values after ≈ are worked out from the molar mass of the structure shown. *1 amine or outer side, *2 acyl side, *3 side chain or, on linkers, in order; H or OH if unused. Where a SMILES comes first, the peptide text is derived from it. Bridges are numbered along the chain shown (N, C = ends). [ ]: non-standard residue; d: D form. The star is where a group is joined. TBMB = c1c(C[*:1])cc(C[*:3])cc1C[*:2]; NHDecyl = CCCCCCCCCCN*

test system: M. luteus (NCTC2665); experiment: microbe, parasite or virus in culture; format: cell-based, Micrococcus luteus; details: Supplemental table S6, lipidated phage display hits; n.a. = not active, highest tested conc 64 µg/ml
Procedure: Section 4 Biological and biochemical experiments
4.1 Minimum inhibitory concentration assay
MIC values were determined by using the broth microdilution method. Peptides were dissolved first in DMSO and diluted with broth so that the final peptide concentration was 1024 µg/ml and the DMSO concentration was 4%. Peptide serial dilutions were made in TSB in a polypropylene 96-wells plate using 50 µl volumes. An overnight culture of the organism of interest was diluted to and OD600 of 0.01 and grown until they reach 0.5. The culture was then diluted to 1 x 10^6 CFU/ml and 50 µl of this suspension was added to each well. The highest concentrations were then 512 µg/ml peptide and 2% DMSO. The plates were incubated at the preferred growth temperature of the organism that was used and 250 rpm. […] When […]
determining the MICs of the lipidated peptides, the lipopeptides were first dissolved in DMSO and diluted with TSB so that the peptide concentration was 128 µg/ml and the DMSO concentration was 4%. After inoculation the highest peptide concentration evaluated was 64 µg/ml and the DMSO concentration was 2%. A DMSO control was tested for each strain to ensure the DMSO did not affect the growth of the particular strain. […]

**Q.** For `CCCCCCCCCCNC(=O)CNC(=O)[C@@H]1CSCc2cc3cc(c2)CSC[C@H](NC(=O)[C@H](Cc2ccc(O)cc2)NC(=O)[C@H](Cc2c[nH]c4ccccc24)NC(=O)[C@H](CC(=O)O)NC(=O)[C@H](C(C)C)NC(=O)[C@@H]2CCCN2C(=O)[C@H](Cc2ccc(O)cc2)NC(=O)[C@@H](NC(=O)[C@H](C)N)CSC3)C(=O)N[C@@H](CC(C)C)C(=O)N[C@@H](Cc2ccccc2)C(=O)N[C@@H](CCC(N)=O)C(=O)N[C@@H]([C@@H](C)O)C(=O)N[C@@H](C(C)C)C(=O)N[C@@H](CC(=O)O)C(=O)N1` [Peptide P6-C10] (H-ACYPVDWYCLFQTVDCG-NHDecyl; linker 2-9-16 via TBMB; N-terminus assumed), which “MIC M. luteus” value is on record?
**A.** Its value is 2 µg/mL (≈ 0.894 µM).

same assay, conditions: Supplemental table S8; non-lipidated P8 variants; broth microdilution, highest tested 512 µg/ml

**Q.** How did the “MIC of Ala scan of P8-D against M. luteus” value (from here on “MIC of Ala scan of P8-D”) turn out when `CC(C)C[C@H]1NC(=O)[C@H](NC(=O)[C@@H](C)N)CSCc2cc3cc(c2)CSC[C@@H](NC(=O)[C@@H](CC(C)C)NC(=O)[C@@H](CC(C)C)NC(=O)[C@@H](CO)NC(=O)[C@@H](CCC(N)=O)NC(=O)[C@@H](C)NC1=O)C(=O)N1CCC[C@@H]1C(=O)N[C@H](Cc1ccc(O)cc1)C(=O)N[C@H](CO)C(=O)N[C@H]([C@H](C)O)C(=O)N[C@H](Cc1c[nH]cn1)C(=O)N[C@H](CCCNC(=N)N)C(=O)N[C@@H](C(=O)NCC(N)=O)CSC3` [Peptide P8-D-L4A] (H-[dA][dC][dL][dA][dQ][dS][dL][dL][dC][dP][dY][dS][dT][dH][dR][dC]G-NH2; linker 2-9-16 via TBMB; N-terminus assumed) was run?
**A.** Its value is over 512 µg/mL.

**Q.** Which “MIC of Ala scan of P8-D” value does the source give for `CC(C)C[C@H]1NC(=O)[C@@H](C)NC(=O)[C@H](NC(=O)[C@@H](C)N)CSCc2cc3cc(c2)CSC[C@@H](NC(=O)[C@@H](CC(C)C)NC(=O)[C@@H](CC(C)C)NC(=O)[C@@H](CO)NC(=O)[C@@H](CCC(N)=O)NC1=O)C(=O)N1CCC[C@@H]1C(=O)N[C@H](Cc1ccc(O)cc1)C(=O)N[C@H](CO)C(=O)N[C@H]([C@H](C)O)C(=O)N[C@H](Cc1c[nH]cn1)C(=O)N[C@H](CCCNC(=N)N)C(=O)N[C@@H](C(=O)NCC(N)=O)CSC3` [Peptide P8-D-L3A] (H-[dA][dC][dA][dL][dQ][dS][dL][dL][dC][dP][dY][dS][dT][dH][dR][dC]G-NH2; linker 2-9-16 via TBMB; N-terminus assumed) here?
**A.** Its value is over 512 µg/mL.

**Q.** `CC(C)C[C@H]1NC(=O)[C@H](NC(=O)[C@@H](C)N)CSCc2cc3cc(c2)CSC[C@@H](NC(=O)[C@@H](CC(C)C)NC(=O)[C@@H](CC(C)C)NC(=O)[C@@H](CO)NC(=O)[C@@H](CCC(N)=O)NC(=O)[C@@H](CC(C)C)NC1=O)C(=O)N1CCC[C@@H]1C(=O)N[C@H](Cc1ccc(O)cc1)C(=O)N[C@H](CO)C(=O)N[C@H]([C@H](C)O)C(=O)N[C@H](Cc1c[nH]cn1)C(=O)N[C@H](CCCNC(=N)N)C(=O)N[C@@H](C(=O)NCC(N)=O)CSC3` [Peptide P8] (H-[dA][dC][dL][dL][dQ][dS][dL][dL][dC][dP][dY][dS][dT][dH][dR][dC]G-NH2; linker 2-9-16 via TBMB; N-terminus assumed) was tested. Which “MIC of Ala scan of P8-D” value did it give?
**A.** Its value is 128 µg/mL.

**Q.** How did the “MIC of Ala scan of P8-D” value turn out when `CC(C)C[C@H]1NC(=O)[C@H](NC(=O)[C@@H](C)N)CSCc2cc3cc(c2)CSC[C@@H](NC(=O)[C@@H](CC(C)C)NC(=O)[C@@H](CC(C)C)NC(=O)[C@@H](CO)NC(=O)[C@@H](CCC(N)=O)NC(=O)[C@@H](CC(C)C)NC1=O)C(=O)N[C@H](C)C(=O)N[C@H](Cc1ccc(O)cc1)C(=O)N[C@H](CO)C(=O)N[C@H]([C@H](C)O)C(=O)N[C@H](Cc1c[nH]cn1)C(=O)N[C@H](CCCNC(=N)N)C(=O)N[C@@H](C(=O)NCC(N)=O)CSC3` [Peptide P8-D-P10A] (H-[dA][dC][dL][dL][dQ][dS][dL][dL][dC][dA][dY][dS][dT][dH][dR][dC]G-NH2; linker 2-9-16 via TBMB; N-terminus assumed) was run?
**A.** Its value is 128 µg/mL.

**Q.** For `CC(C)C[C@H]1NC(=O)[C@H](NC(=O)[C@@H](C)N)CSCc2cc3cc(c2)CSC[C@@H](NC(=O)[C@@H](CC(C)C)NC(=O)[C@@H](CC(C)C)NC(=O)[C@@H](CO)NC(=O)[C@@H](CCC(N)=O)NC(=O)[C@@H](CC(C)C)NC1=O)C(=O)N1CCC[C@@H]1C(=O)N[C@H](C)C(=O)N[C@H](CO)C(=O)N[C@H]([C@H](C)O)C(=O)N[C@H](Cc1c[nH]cn1)C(=O)N[C@H](CCCNC(=N)N)C(=O)N[C@@H](C(=O)NCC(N)=O)CSC3` [Peptide P8-D-Y11A] (H-[dA][dC][dL][dL][dQ][dS][dL][dL][dC][dP][dA][dS][dT][dH][dR][dC]G-NH2; linker 2-9-16 via TBMB; N-terminus assumed), which “MIC of Ala scan of P8-D” value is on record?
**A.** Its value is 512 µg/mL.

**Q.** With `CC(C)C[C@H]1NC(=O)[C@H](NC(=O)[C@@H](C)N)CSCc2cc3cc(c2)CSC[C@@H](NC(=O)[C@@H](CC(C)C)NC(=O)[C@@H](CC(C)C)NC(=O)[C@@H](CO)NC(=O)[C@@H](CCC(N)=O)NC(=O)[C@@H](CC(C)C)NC1=O)C(=O)N1CCC[C@@H]1C(=O)N[C@H](Cc1ccc(O)cc1)C(=O)N[C@H](CO)C(=O)N[C@H]([C@H](C)O)C(=O)N[C@H](C)C(=O)N[C@H](CCCNC(=N)N)C(=O)N[C@@H](C(=O)NCC(N)=O)CSC3` [Peptide P8-D-H14A] (H-[dA][dC][dL][dL][dQ][dS][dL][dL][dC][dP][dY][dS][dT][dA][dR][dC]G-NH2; linker 2-9-16 via TBMB; N-terminus assumed) as the compound, how does the “MIC of Ala scan of P8-D” value read?
**A.** Its value is 64 to 128 µg/mL.

**Q.** Which “MIC of Ala scan of P8-D” value does the source give for `CC(C)C[C@H]1NC(=O)[C@@H](CC(C)C)NC(=O)[C@H](NC(=O)[C@@H](C)N)CSCc2cc3cc(c2)CSC[C@@H](NC(=O)[C@@H](CC(C)C)NC(=O)[C@@H](CC(C)C)NC(=O)[C@@H](CO)NC(=O)[C@@H](C)NC1=O)C(=O)N1CCC[C@@H]1C(=O)N[C@H](Cc1ccc(O)cc1)C(=O)N[C@H](CO)C(=O)N[C@H]([C@H](C)O)C(=O)N[C@H](Cc1c[nH]cn1)C(=O)N[C@H](CCCNC(=N)N)C(=O)N[C@@H](C(=O)NCC(N)=O)CSC3` [Peptide P8-D-Q5A] (H-[dA][dC][dL][dL][dA][dS][dL][dL][dC][dP][dY][dS][dT][dH][dR][dC]G-NH2; linker 2-9-16 via TBMB; N-terminus assumed) here?
**A.** Its value is over 512 µg/mL.

**Q.** `CC(C)C[C@H]1NC(=O)[C@H](NC(=O)[C@@H](C)N)CSCc2cc3cc(c2)CSC[C@@H](NC(=O)[C@@H](CC(C)C)NC(=O)[C@@H](CC(C)C)NC(=O)[C@@H](CO)NC(=O)[C@@H](CCC(N)=O)NC(=O)[C@@H](CC(C)C)NC1=O)C(=O)N1CCC[C@@H]1C(=O)N[C@H](Cc1ccc(O)cc1)C(=O)N[C@H](CO)C(=O)N[C@H](C)C(=O)N[C@H](Cc1c[nH]cn1)C(=O)N[C@H](CCCNC(=N)N)C(=O)N[C@@H](C(=O)NCC(N)=O)CSC3` [Peptide P8-D-T13A] (H-[dA][dC][dL][dL][dQ][dS][dL][dL][dC][dP][dY][dS][dA][dH][dR][dC]G-NH2; linker 2-9-16 via TBMB; N-terminus assumed) was tested. Which “MIC of Ala scan of P8-D” value did it give?
**A.** Its value is 512 µg/mL.

**Q.** `CC(C)C[C@H]1NC(=O)[C@H](NC(=O)[C@@H](C)N)CSCc2cc3cc(c2)CSC[C@@H](NC(=O)[C@@H](CC(C)C)NC(=O)[C@@H](CC(C)C)NC(=O)[C@@H](CO)NC(=O)[C@@H](CCC(N)=O)NC(=O)[C@@H](CC(C)C)NC1=O)C(=O)N1CCC[C@@H]1C(=O)N[C@H](Cc1ccc(O)cc1)C(=O)N[C@H](CO)C(=O)N[C@H]([C@H](C)O)C(=O)N[C@H](Cc1c[nH]cn1)C(=O)N[C@H](C)C(=O)N[C@@H](C(=O)NCC(N)=O)CSC3` [Peptide P8-D-R15A] (H-[dA][dC][dL][dL][dQ][dS][dL][dL][dC][dP][dY][dS][dT][dH][dA][dC]G-NH2; linker 2-9-16 via TBMB; N-terminus assumed) was tested. Which “MIC of Ala scan of P8-D” value did it give?
**A.** The value was 128 to 256 µg/mL.

**Q.** With `CC(C)C[C@H]1NC(=O)[C@H](NC(=O)[C@@H](C)N)CSCc2cc3cc(c2)CSC[C@@H](NC(=O)[C@@H](CC(C)C)NC(=O)[C@@H](CC(C)C)NC(=O)[C@@H](CO)NC(=O)[C@@H](CCC(N)=O)NC(=O)[C@@H](CC(C)C)NC1=O)C(=O)N1CCC[C@@H]1C(=O)N[C@H](Cc1ccc(O)cc1)C(=O)N[C@H](C)C(=O)N[C@H]([C@H](C)O)C(=O)N[C@H](Cc1c[nH]cn1)C(=O)N[C@H](CCCNC(=N)N)C(=O)N[C@@H](C(=O)NCC(N)=O)CSC3` [Peptide P8-D-S12A] (H-[dA][dC][dL][dL][dQ][dS][dL][dL][dC][dP][dY][dA][dT][dH][dR][dC]G-NH2; linker 2-9-16 via TBMB; N-terminus assumed) as the compound, how does the “MIC of Ala scan of P8-D” value read?
**A.** Its value is 512 µg/mL.

same assay, conditions: Table 1; non-lipidated bicyclic peptides; broth microdilution in TSB, 16 h, read visually; n.a. = no activity, highest tested concentration 512 μg mL^–1

**Q.** For `CC(C)C[C@H]1NC(=O)[C@H](NC(=O)[C@@H](C)N)CSCc2cc3cc(c2)CSC[C@@H](NC(=O)[C@@H](CC(C)C)NC(=O)[C@@H](CC(C)C)NC(=O)[C@@H](CO)NC(=O)[C@@H](CCC(N)=O)NC(=O)[C@@H](CC(C)C)NC1=O)C(=O)N1CCC[C@@H]1C(=O)N[C@H](Cc1ccc(O)cc1)C(=O)N[C@H](CO)C(=O)N[C@H]([C@H](C)O)C(=O)N[C@H](Cc1c[nH]cn1)C(=O)N[C@H](CCCNC(=N)N)C(=O)N[C@@H](C(=O)NCC(N)=O)CSC3` [Peptide P8] (H-[dA][dC][dL][dL][dQ][dS][dL][dL][dC][dP][dY][dS][dT][dH][dR][dC]G-NH2; linker 2-9-16 via TBMB; N-terminus assumed), which “MIC against M. luteus” value is on record?
**A.** The value was 64–128 μg mL^–1.

**Q.** For `CC[C@H](C)[C@@H]1NC(=O)[C@@H]2CSCc3cc(cc(c3)CSC[C@@H](C(=O)NCC(N)=O)NC(=O)[C@H](CCCNC(=N)N)NC(=O)[C@H]([C@@H](C)CC)NC(=O)[C@H](CC(N)=O)NC(=O)[C@H](C)NC(=O)[C@H](CO)NC1=O)CSC[C@H](NC(=O)[C@H](C)N)C(=O)N[C@@H](CCCNC(=N)N)C(=O)N1CCC[C@H]1C(=O)N[C@@H](CCC(N)=O)C(=O)N[C@@H](CCCCN)C(=O)N[C@@H](Cc1ccccc1)C(=O)N[C@@H](CC(N)=O)C(=O)N2` [Peptide P4] (H-ACRPQKFNCISANIRCG-NH2; linker 2-9-16 via TBMB; N-terminus assumed), which “MIC against M. luteus” value is on record?
**A.** Its value is 64 μg mL^–1.
